In brackets after ≈: the same amount, converted by molar mass. Several values for one entry are separate records, joined by “and”; a condition that tells them apart may be missing. Equal entries are not always repeated. Where two headings read alike, the source gives them in different places.
How the values were obtained:
human erythrocytes = assay: Hemolytic activity against human erythrocytes (HC50 / MHC, microtiter dilution); assay type: cell-based
Experimental: (§1) Hemoglobin release was determined spectrophotometrically at 570 nm. The hemolytic activity was determined as the peptide concentration that caused 50% hemolysis of erythrocytes after 18 h (HC50). […] HC50 was determined by a plot of peptide concentration versus percent lysis.

Pseudomonas aeruginosa = details: for Pseudomonas aeruginosa MICGM: geometric mean, 6 different isolates, 24 hours at 37° C.; for MIC PAO 1: 37° C., 24 h, strain PAO1; for MIC GM (geometric mean of the MIC values): six P. aeruginosa strains; for MIC CP 204: strain CP204; for MIC M 2: strain M2; for MIC PA 14: strain PA14; for MIC PAK: strain PAK; for MIC WR 5: strain WR5
Acinetobacter baumannii = assay type: cell-based; details: for Acinetobacter baumannii MICGM: geometric mean, 11 different isolates, 24 hours at 37° C.
Experimental: (§2) Minimal inhibitory concentrations (MICs) are determined using a standard microtiter dilution method, with 3 sets of determinations, in LB (Luria-Bertani) no-salt medium (10 g of tryptone and 5 g of yeast extract per liter). In some cases, Mueller Hinton (MH) medium or Brain Heart Infusion (BHI) medium is used.
(§3) Briefly, cells were grown overnight at 37° C. in LB and diluted in the same medium. Serial dilutions of the peptides are added to the microtiter plates in a volume of 100 μl followed by 10 μl of bacteria to give a final inoculum of 5×10^5 colony-forming units/ml. Plates are incubated at 37° C. for 24 hours and MICs determined as the lowest peptide concentration that inhibited growth. Alternatively, minimal inhibitory concentrations are determined using a standard microtiter dilution method in a Mueller-Hinton (MH) medium. Briefly, cells are grown overnight at 37° C. in MH broth and diluted in the same medium. In some cases, serial dilutions of the peptides are added to the microtiter plates in a volume of 100 μl followed by 10 μl of bacteria to give a final inoculum of 1×10^5 colony-forming units/ml. Plates are incubated at 37° C. for 24 hours and MICs are determined as the lowest peptide concentration that inhibited growth.
The biological activities of these six peptide analogs was determined against 11 clinical isolated of Acinetobacter baumannii (Table 9). Please note that the activities are reported in micromolar rather than microgram/ml. This allows a direct comparison on a molar basis with the effectiveness of molecules of different molecular weights whether peptides disclosed herein or antibiotics which in general are smaller in molecular mass. […] These are the highest antimicrobial activities observed in studies of antimicrobial peptides derived by modifying the peptide sequence of SEQ ID NO:24 (D1). D22 has the best hemolytic activity of the six analogs (D17-D22) and a therapeutic index of […] compared to […] for D1 (Table 9). D22 has no apparent advantage over D1 as determined in these experiments.

[1] = Hemolytic activity against human erythrocytes (HC50 / MHC, microtiter dilution); assay type: cell-based; details: human, 1% human erythrocytes, pH 7.4
Experimental: as §1

[2] = RP-HPLC retention as measure of overall peptide hydrophobicity; assay type: physicochemical; details: pH 2, room temperature
Experimental: Crude and purified peptides were analyzed on an Agilent 1100 series liquid chromatograph (Little Falls, Del.). Runs were performed on a Zorbax 300 SB-C8 column (150×2.1 mm I.D.; 5 μm particle size, 300 Å pore size) from Agilent Technologies using linear AB gradient (1% acetonitrile/min) and a flow rate of 0.25 ml/min, where eluant A was 0.2% aqueous TFA, pH 2 and eluant B was 0.2% TFA in acetonitrile.

[3] = RP-HPLC temperature profiling (peptide self-association parameter PA); assay type: physicochemical; details: RP-HPLC temperature profiling 5-80° C., pH 2, relative to control peptide C
Experimental: Temperature profiling analyses were performed on the same column in 3° C. increments, from 5° C. to 80° C., using a linear AB gradient of 0.5% acetonitrile/min, as described previously (30, 53, 92, 93).
Peptide self-association (i.e., the ability to oligomerize/dimerize) in aqueous solution is a very important parameter for antimicrobial activity (53, 92, 93). Without wishing to be bound by any particular theory, the present inventors postulated that monomeric random-coil antimicrobial peptides are best suited to pass through the capsule and cell wall of microorganisms prior to penetration into the cytoplasmic membrane, induction of α-helical structure and disruption of membrane structure to kill target cells (93). Thus, if the self-association ability of a peptide in aqueous media is too strong (e.g., forming stable folded dimers through interaction of their non-polar faces) this could decrease the ability of the peptide to dissociate to monomer, in addition oligomerization of the peptide can prevent it from effectively passing through the capsule and cell wall to reach the membrane. The ability of the peptides in the present study to self-associate was determined by the technique of RP-HPLC temperature profiling at pH 2 (29, 30, 38). The reason pH 2 is used to determine self-association of cationic AMPs is that highly positively charged peptides are frequently not eluted from reversed-phase columns at pH 7 due to non-specific binding to negatively charged silanols on the column matrix. This is not a problem at pH 2 since the silanols are protonated (i.e., neutral) and non-specific electrostatic interactions are eliminated. At pH 2, the interactions between the peptide and the reversed-phase matrix involve ideal retention behavior, i.e., only hydrophobic interactions between the preferred binding domain (nonpolar face) of the amphipathic molecule and the hydrophobic surface of the column matrix are present (39). […] Control peptide C is a monomeric random coil peptide in both aqueous and hydrophobic media; thus, its linear decrease in peptide retention behavior with increasing temperature within the range of 5° C. to 80° C. represents only the general effects of temperature due to greater solute diffusivity and enhanced mass transfer between the stationary and mobile phase at higher temperatures (55). To allow for these general temperature effects, the data for the control peptide was subtracted from each temperature profile as shown in FIG. 2B. Thus, the peptide self-association parameter, PA, represents the maximum change in peptide retention time relative to the random coil peptide C. Note that the higher the PA value, the greater the self-association.

[4] = test system: Methicillin Resistant Staphylococcus aureus (MRSA) and Staphylococcus aureus; assay type: cell-based
Experimental: as §2, §3
Identification of Antimicrobial Peptides for Gram-positive Bacteria. In a manner similar to testing against gram-negative bacteria, experiments were carried out to screen the 14 peptides used to identify antimicrobial peptides with significant activity against A. baumanii shown above against 20 different clinical isolates of Methicillin Resistant Staphylococcus aureus (MRSA) and Staphylococcus aureus.

Pseudomonas aeruginosa MICGM (Pseudomonas aeruginosa)	Hydrophobicity (retention time in RP-HPLC) [2]	MIC PAO 1 (Pseudomonas aeruginosa; Brain Heart Infusion medium)	MIC GM (geometric mean of the MIC values) (Pseudomonas aeruginosa; Brain Heart Infusion medium)	MIC CP 204 (Pseudomonas aeruginosa; Brain Heart Infusion medium)	MIC M 2 (Pseudomonas aeruginosa; Brain Heart Infusion medium)	MIC PA 14 (Pseudomonas aeruginosa; Brain Heart Infusion medium)	MIC PAK (Pseudomonas aeruginosa; Brain Heart Infusion medium)	MIC WR 5 (Pseudomonas aeruginosa; Brain Heart Infusion medium)	MIC PAO 1 (Pseudomonas aeruginosa; Mueller Hinton medium)	MIC GM (geometric mean of the MIC values) (Pseudomonas aeruginosa; Mueller Hinton medium)	MIC CP 204 (Pseudomonas aeruginosa; Mueller Hinton medium)	MIC M 2 (Pseudomonas aeruginosa; Mueller Hinton medium)	MIC PA 14 (Pseudomonas aeruginosa; Mueller Hinton medium)	MIC PAK (Pseudomonas aeruginosa; Mueller Hinton medium)	MIC WR 5 (Pseudomonas aeruginosa; Mueller Hinton medium)	PA (dimerization / self-association parameter) [3]	MIC GM (geometric mean) [4]	MIC GM (geometric mean) (Acinetobacter baumannii)	Compound	HC50 at 18 h [1]	also measured
2 µM																			CC(=O)N[C@H](CCCCN)C(=O)N[C@H](CC(C)C)C(=O)N[C@H](CCCCN)C(=O)N[C@H](CO)C(=O)N[C@H](CC(C)C)C(=O)N[C@H](CC(C)C)C(=O)N[C@H](CCCCN)C(=O)N[C@@H](C(=O)N[C@H](CC(C)C)C(=O)N[C@H](CO)C(=O)N[C@H](CCCCN)C(=O)N[C@H](CC(C)C)C(=O)N[C@H](CCCCN)C(=O)N[C@H](CCCCN)C(=O)N[C@H](CCCCN)C(=O)N[C@H](CCCCN)C(=O)N[C@H](CC(C)C)C(=O)N[C@H](CCCCN)C(=O)N[C@@H](C(=O)N[C@H](CC(C)C)C(=O)N[C@H](CC(C)C)C(=O)N[C@H](CCCCN)C(=O)N[C@H](C)C(=O)N[C@H](CC(C)C)C(=O)N[C@H](CO)C(=O)N[C@H](CCCCN)C(N)=O)[C@H](C)O)[C@H](C)O [Peptide D23, Ac-KLKSLLKTLSKLKKKKLKTLLKALSK-amide]		Hemolytic activity HC50 (human erythrocytes): 186 µM; Acinetobacter baumannii MICGM (Acinetobacter baumannii): 0.8 µM
	98.81 min	31.3 µg/mL (≈ 11 µM)	35.1 µg/mL	62.5 µg/mL (≈ 21.9 µM)	31.3 µg/mL (≈ 11 µM)	15.6 µg/mL (≈ 5.46 µM)	31.3 µg/mL (≈ 11 µM)	62.5 µg/mL (≈ 21.9 µM)	15.6 µg/mL (≈ 5.46 µM)	22.1 µg/mL	31.3 µg/mL (≈ 11 µM)	31.3 µg/mL (≈ 11 µM)	15.6 µg/mL (≈ 5.46 µM)	15.6 µg/mL (≈ 5.46 µM)	31.3 µg/mL (≈ 11 µM)	7.96	19.7 µM (≈ 56.3 µg/mL)	0.7 µM (≈ 2 µg/mL)	CC[C@@H](C)[C@@H](NC(=O)[C@@H](C)NC(=O)[C@@H](CO)NC(=O)[C@@H](CC(C)C)NC(=O)[C@@H](CC(C)C)NC(=O)[C@H](NC(=O)[C@@H](CCCCN)NC(=O)[C@@H](CC(C)C)NC(=O)[C@@H](C)NC(=O)[C@@H](CCCCN)NC(=O)[C@@H](CCCCN)NC(=O)[C@@H](CCCCN)NC(=O)[C@@H](C)NC(=O)[C@@H](CCCCN)NC(=O)[C@@H](CO)NC(=O)[C@@H](Cc1ccccc1)NC(=O)[C@H](NC(=O)[C@@H](CO)NC(=O)[C@@H](CC(C)C)NC(=O)[C@@H](Cc1ccccc1)NC(=O)[C@@H](CO)NC(=O)[C@@H](CO)NC(=O)[C@@H](Cc1c[nH]c2ccccc12)NC(=O)[C@@H](CO)NC(C)=O)[C@H](C)O)[C@H](C)O)C(=O)N[C@H](CO)C(=O)N[C@H](CO)C(N)=O [Peptide D17, Ac-SWSSFLSTFSKAKKKALKTLLSAISS-amide]	62 µg/mL and 21.7 µM	MIC (Acinetobacter baumannii; 24 h): 0.7 µM (≈ 2 µg/mL)
	97.94 min	7.8 µg/mL (≈ 2.65 µM)	9.8 µg/mL	15.6 µg/mL (≈ 5.31 µM)	7.8 µg/mL (≈ 2.65 µM)	3.9 µg/mL (≈ 1.33 µM)	15.6 µg/mL (≈ 5.31 µM)	15.6 µg/mL (≈ 5.31 µM)	3.9 µg/mL (≈ 1.33 µM)	7.8 µg/mL	15.6 µg/mL (≈ 5.31 µM)	15.6 µg/mL (≈ 5.31 µM)	3.9 µg/mL (≈ 1.33 µM)	3.9 µg/mL (≈ 1.33 µM)	15.6 µg/mL (≈ 5.31 µM)	7.07	5.3 µM (≈ 15.6 µg/mL)	0.8 µM (≈ 2.35 µg/mL)	CC[C@@H](C)[C@@H](NC(=O)[C@@H](C)NC(=O)[C@@H](CCCCN)NC(=O)[C@@H](CC(C)C)NC(=O)[C@@H](CC(C)C)NC(=O)[C@H](NC(=O)[C@@H](CCCCN)NC(=O)[C@@H](CC(C)C)NC(=O)[C@@H](C)NC(=O)[C@@H](CCCCN)NC(=O)[C@@H](CCCCN)NC(=O)[C@@H](CCCCN)NC(=O)[C@@H](C)NC(=O)[C@@H](CCCCN)NC(=O)[C@@H](CO)NC(=O)[C@@H](Cc1ccccc1)NC(=O)[C@H](NC(=O)[C@@H](CCCCN)NC(=O)[C@@H](CC(C)C)NC(=O)[C@@H](Cc1ccccc1)NC(=O)[C@@H](CO)NC(=O)[C@@H](CO)NC(=O)[C@@H](Cc1c[nH]c2ccccc12)NC(=O)[C@@H](CO)NC(C)=O)[C@H](C)O)[C@H](C)O)C(=O)N[C@H](CO)C(=O)N[C@H](CO)C(N)=O [Peptide D19, Ac-SWSSFLKTFSKAKKKALKTLLKAISS-amide]	36 µg/mL and 12.2 µM	
2.3 µM	90.7 min and 90.67 min	15.6 µg/mL (≈ 5.09 µM)	9.8 µg/mL	31.3 µg/mL (≈ 10.2 µM)	3.9 µg/mL (≈ 1.27 µM)	3.9 µg/mL (≈ 1.27 µM)	7.8 µg/mL (≈ 2.55 µM)	15.6 µg/mL (≈ 5.09 µM)	3.9 µg/mL (≈ 1.27 µM)	7.0 µg/mL	31.3 µg/mL (≈ 10.2 µM)	15.6 µg/mL (≈ 5.09 µM)	0.5 µg/mL (≈ 0.163 µM)	3.9 µg/mL (≈ 1.27 µM)	31.3 µg/mL (≈ 10.2 µM)	5.13	12.1 µM (≈ 37.1 µg/mL)	0.8 µM (≈ 2.45 µg/mL)	CC[C@@H](C)[C@@H](NC(=O)[C@@H](C)NC(=O)[C@@H](CCCCN)NC(=O)[C@@H](CC(C)C)NC(=O)[C@@H](CC(C)C)NC(=O)[C@H](NC(=O)[C@@H](CCCCN)NC(=O)[C@@H](CC(C)C)NC(=O)[C@@H](C)NC(=O)[C@@H](CCCCN)NC(=O)[C@@H](CCCCN)NC(=O)[C@@H](CCCCN)NC(=O)[C@@H](C)NC(=O)[C@@H](CCCCN)NC(=O)[C@@H](CO)NC(=O)[C@@H](Cc1ccccc1)NC(=O)[C@H](NC(=O)[C@@H](CCCCN)NC(=O)[C@@H](CC(C)C)NC(=O)[C@@H](Cc1ccccc1)NC(=O)[C@@H](CO)NC(=O)[C@@H](CCCCN)NC(=O)[C@@H](Cc1c[nH]c2ccccc12)NC(=O)[C@@H](CCCCN)NC(C)=O)[C@H](C)O)[C@H](C)O)C(=O)N[C@H](CO)C(=O)N[C@H](CCCCN)C(N)=O [Peptide D22, Ac-KWKSFLKTFSKAKKKALKTLLKAISK-amide]	249 µg/mL and 81.3 µM	Acinetobacter baumannii MICGM (Acinetobacter baumannii): 0.8 µM
